Assay results: patent EP4722207A1, “OXOISOINDOLINYL-SUBSTITUTED TETRAHYDROPYRIMIDINEDIONE DERIVATIVE AND USE THEREOF” (Gluetacs Therapeutics (Shanghai) Co., Ltd., priority 2023, dated 2024)

Legend:
Assay type in all cases: cell-based
Conditions in all cases: compounds at 50 nM and 500 nM, 24 hours
IKZF1 = target: T1, IKZF1 (Homo sapiens, UniProt Q13422+Q96SW2); experiment: Western-blot assay, substrate protein degradation in hPBMCs: IKZF1
T1 construct: effects of the compounds of the present disclosure on the expression of target proteins in cells; endogenous in cells; host or cells: human PBMCs (hPBMCs)
T1 sequence (Q13422 whole entry): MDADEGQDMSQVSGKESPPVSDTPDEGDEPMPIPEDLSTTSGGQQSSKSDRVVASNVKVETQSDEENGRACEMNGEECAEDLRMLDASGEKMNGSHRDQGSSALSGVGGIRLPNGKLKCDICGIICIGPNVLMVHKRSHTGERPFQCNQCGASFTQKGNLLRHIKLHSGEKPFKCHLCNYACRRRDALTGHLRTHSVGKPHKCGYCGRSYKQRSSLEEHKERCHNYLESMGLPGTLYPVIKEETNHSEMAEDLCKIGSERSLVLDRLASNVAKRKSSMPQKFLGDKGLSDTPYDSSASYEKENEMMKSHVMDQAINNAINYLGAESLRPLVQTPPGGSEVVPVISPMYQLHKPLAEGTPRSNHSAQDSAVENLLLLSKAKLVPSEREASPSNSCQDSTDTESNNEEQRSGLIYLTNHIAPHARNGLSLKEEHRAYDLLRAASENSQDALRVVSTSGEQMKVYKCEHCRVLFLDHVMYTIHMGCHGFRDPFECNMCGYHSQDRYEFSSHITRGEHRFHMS
T1 sequence (Q96SW2 whole entry): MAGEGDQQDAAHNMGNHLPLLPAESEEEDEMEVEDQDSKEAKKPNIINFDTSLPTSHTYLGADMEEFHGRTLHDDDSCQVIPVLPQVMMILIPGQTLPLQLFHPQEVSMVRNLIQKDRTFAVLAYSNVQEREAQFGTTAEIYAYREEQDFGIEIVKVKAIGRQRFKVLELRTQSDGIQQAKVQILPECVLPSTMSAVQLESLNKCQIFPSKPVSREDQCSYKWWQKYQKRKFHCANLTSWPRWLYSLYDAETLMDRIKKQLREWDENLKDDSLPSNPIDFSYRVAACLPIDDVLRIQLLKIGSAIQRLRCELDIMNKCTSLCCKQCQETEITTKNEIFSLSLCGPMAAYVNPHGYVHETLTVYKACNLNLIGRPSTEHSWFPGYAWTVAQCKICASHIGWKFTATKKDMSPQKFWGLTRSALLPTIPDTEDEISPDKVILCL
T1 sequence (Q16531 whole entry partner): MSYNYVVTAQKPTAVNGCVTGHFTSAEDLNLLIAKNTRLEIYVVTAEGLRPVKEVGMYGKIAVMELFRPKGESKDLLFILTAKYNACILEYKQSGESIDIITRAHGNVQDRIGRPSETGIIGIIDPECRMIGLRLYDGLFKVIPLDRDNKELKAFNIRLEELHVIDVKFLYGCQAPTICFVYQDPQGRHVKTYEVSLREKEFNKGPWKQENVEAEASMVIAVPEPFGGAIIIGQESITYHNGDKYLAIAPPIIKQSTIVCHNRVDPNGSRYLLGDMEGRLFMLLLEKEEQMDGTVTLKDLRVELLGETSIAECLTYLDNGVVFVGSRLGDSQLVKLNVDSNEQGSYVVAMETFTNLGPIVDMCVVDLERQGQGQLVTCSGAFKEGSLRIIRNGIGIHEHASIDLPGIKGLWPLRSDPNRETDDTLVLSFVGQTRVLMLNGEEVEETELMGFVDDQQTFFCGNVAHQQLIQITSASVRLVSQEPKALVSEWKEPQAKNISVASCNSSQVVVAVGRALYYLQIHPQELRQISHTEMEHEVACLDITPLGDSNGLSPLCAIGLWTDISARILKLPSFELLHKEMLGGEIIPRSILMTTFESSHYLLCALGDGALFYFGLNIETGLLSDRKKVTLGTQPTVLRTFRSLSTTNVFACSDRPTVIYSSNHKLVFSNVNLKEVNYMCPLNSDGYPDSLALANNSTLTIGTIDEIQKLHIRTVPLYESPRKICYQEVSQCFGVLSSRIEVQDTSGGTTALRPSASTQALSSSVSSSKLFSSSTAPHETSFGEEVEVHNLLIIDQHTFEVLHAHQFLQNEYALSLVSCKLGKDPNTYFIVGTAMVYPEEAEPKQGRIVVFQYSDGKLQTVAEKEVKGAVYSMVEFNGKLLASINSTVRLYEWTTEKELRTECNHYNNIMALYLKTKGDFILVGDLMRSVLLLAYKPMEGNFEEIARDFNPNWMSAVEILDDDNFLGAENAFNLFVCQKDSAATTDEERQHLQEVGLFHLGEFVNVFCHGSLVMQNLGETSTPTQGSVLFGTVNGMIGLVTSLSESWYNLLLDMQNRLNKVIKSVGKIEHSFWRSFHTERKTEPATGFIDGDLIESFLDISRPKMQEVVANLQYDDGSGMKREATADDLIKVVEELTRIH
Method: (§1) Conventional Western blot assay was performed to evaluate the effects of the compounds of the present disclosure on the expression of target proteins in cells. • (1) Cell Seeding and Protein Harvesting: Human peripheral blood mononuclear cells (hPBMCs) at a density of 1x10^6 cells/mL were thawed according to the PBMC Recovery Protocol (Milecell Biotechnologies Inc, Shanghai). […] After 24 hours of compounds treatment, cells were harvested and lysed in RIPA protein lysate containing protease inhibitors on ice for 30 min, followed by centrifugation. The supernatant was aspirated as the extracted total cell protein. The protein concentration of the supernatant was determined using the conventional BCA (Bicinchoninic Acid) assay. • (2) To the collected supernatant, 5X SDS sample loading buffer was added, followed by denaturation at 95°C for 5 minutes. The denatured samples were then separated by SDS-PAGE electrophoresis on a polyacrylamide gel. Proteins were transferred to a nitrocellulose membrane (0.45 µm NC membrane), blocked with blocking buffer at room temperature for 1 hour, and subjected to antibody incubation and development procedures according to the antibody manufacturer's instructions (Cell Signaling Technology).
(§2) Half-Maximal Degradation Concentration value (the drug concentration required for degrading proteins by 50%, abbreviated as DC50) reads method: comparing the grayscale values of Western blot bands from drug-treated samples with those from blank DMSO-treated controls, and identifying the drug concentration range at which the grayscale value is half that of the DMSO-treated control bands.
(§3) DC50 values can be calculated using ImageJ software to measure grayscale values of Western blot bands from drug-treated samples. The concentration-response curve is fitted to estimate the drug concentration corresponding to half the grayscale value.
(§4) Target protein remaining (%) refers to the percentage of target protein remaining in cells after treatment with protein degrader compounds.
(§5) Calculation method for target protein remaining (%): Use ImageJ software to measure grayscale values of Western blot bands from drug (protein degrader)-treated samples. The grayscale value of drug-treated bands is divided by that of internal control protein bands, and the resulting quotient is normalized to obtain the relative percentage of remaining target protein after protein degrader treatment. Target protein degradation rate(%) = 1−target protein remaining(%). [formula]

IKZF3 = target: T2, IKZF3 (Homo sapiens, UniProt Q96SW2+Q9UKT9); experiment: Western-blot assay, substrate protein degradation in hPBMCs: IKZF3
T2 construct: effects of the compounds of the present disclosure on the expression of target proteins in cells; endogenous in cells; host or cells: human PBMCs (hPBMCs)
T2 sequence (Q9UKT9 whole entry): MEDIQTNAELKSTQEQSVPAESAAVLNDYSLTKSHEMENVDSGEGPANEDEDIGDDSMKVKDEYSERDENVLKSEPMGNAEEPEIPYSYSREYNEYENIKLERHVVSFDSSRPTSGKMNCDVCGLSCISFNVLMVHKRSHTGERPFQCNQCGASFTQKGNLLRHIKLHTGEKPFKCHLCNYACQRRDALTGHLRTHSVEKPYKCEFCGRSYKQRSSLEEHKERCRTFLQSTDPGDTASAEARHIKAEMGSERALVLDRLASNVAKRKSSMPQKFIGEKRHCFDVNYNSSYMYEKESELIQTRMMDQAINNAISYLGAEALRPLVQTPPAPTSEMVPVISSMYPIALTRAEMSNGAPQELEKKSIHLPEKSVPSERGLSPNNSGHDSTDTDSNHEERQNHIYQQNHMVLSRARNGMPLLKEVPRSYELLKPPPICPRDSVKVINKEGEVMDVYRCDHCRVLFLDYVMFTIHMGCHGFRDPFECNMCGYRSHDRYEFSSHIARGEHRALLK
T2 sequence (Q96SW2 whole entry): as the sequence (Q96SW2 whole entry) above
T2 sequence (Q16531 whole entry partner): as the sequence (Q16531 whole entry partner) above
Method: as §1, §2, §3, §4, §5

IKZF2 = target: T3, IKZF2 (Homo sapiens, UniProt Q96SW2+Q9UKS7); experiment: Western-blot assay, substrate protein degradation in hPBMCs: IKZF2
T3 construct: effects of the compounds of the present disclosure on the expression of target proteins in cells; endogenous in cells; host or cells: human PBMCs (hPBMCs)
T3 sequence (Q9UKS7 whole entry): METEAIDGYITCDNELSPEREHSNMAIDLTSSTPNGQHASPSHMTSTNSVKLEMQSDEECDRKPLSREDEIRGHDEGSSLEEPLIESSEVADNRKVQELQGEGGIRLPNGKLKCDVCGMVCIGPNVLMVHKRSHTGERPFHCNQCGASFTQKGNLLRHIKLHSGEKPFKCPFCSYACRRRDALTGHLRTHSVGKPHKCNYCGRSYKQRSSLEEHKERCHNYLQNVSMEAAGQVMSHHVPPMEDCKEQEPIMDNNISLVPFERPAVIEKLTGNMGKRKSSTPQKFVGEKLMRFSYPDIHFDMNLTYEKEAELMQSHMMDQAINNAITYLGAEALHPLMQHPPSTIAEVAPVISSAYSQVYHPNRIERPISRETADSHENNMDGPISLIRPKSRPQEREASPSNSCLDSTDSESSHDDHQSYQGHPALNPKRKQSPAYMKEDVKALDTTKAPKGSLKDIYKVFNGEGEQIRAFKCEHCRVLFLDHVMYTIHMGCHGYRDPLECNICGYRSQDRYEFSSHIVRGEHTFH
T3 sequence (Q96SW2 whole entry): as the sequence (Q96SW2 whole entry) above
T3 sequence (Q16531 whole entry partner): as the sequence (Q16531 whole entry partner) above
Method: as §1, §2, §3, §4, §5

GSPT1 = target: T4, GSPT1 (Homo sapiens, UniProt P15170+Q96SW2); experiment: Western-blot assay, substrate protein degradation in hPBMCs: GSPT1
T4 construct: effects of the compounds of the present disclosure on the expression of target proteins in cells; endogenous in cells; host or cells: human PBMCs (hPBMCs)
T4 sequence (P15170 whole entry): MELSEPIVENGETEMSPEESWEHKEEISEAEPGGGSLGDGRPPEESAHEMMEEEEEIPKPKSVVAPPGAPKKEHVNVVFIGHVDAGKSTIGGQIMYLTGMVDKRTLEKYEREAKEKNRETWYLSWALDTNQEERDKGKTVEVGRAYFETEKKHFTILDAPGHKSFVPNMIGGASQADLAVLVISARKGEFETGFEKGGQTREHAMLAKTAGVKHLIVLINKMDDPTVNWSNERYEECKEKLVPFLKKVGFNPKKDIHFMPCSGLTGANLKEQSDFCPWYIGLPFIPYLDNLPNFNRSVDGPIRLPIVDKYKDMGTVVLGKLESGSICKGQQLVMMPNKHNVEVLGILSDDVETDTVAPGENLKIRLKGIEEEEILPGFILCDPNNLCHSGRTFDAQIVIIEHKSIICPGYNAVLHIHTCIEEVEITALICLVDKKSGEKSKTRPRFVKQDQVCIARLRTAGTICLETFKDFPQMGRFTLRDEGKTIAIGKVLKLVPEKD
T4 sequence (Q96SW2 whole entry): as the sequence (Q96SW2 whole entry) above
T4 sequence (Q16531 whole entry partner): as the sequence (Q16531 whole entry partner) above
Method: as §1, §2, §3, §4, §5

WEE1 = target: T5, WEE1 (Homo sapiens, UniProt P30291+Q96SW2); experiment: Western-blot assay, substrate protein degradation in hPBMCs: WEE1
T5 construct: effects of the compounds of the present disclosure on the expression of target proteins in cells; endogenous in cells; host or cells: human PBMCs (hPBMCs)
Method: as §1, §2, §3, §4, §5

CK1α = target: T6, CK1α (Homo sapiens, UniProt P48729+Q96SW2); experiment: Western-blot assay, substrate protein degradation in hPBMCs: CK1α
T6 construct: effects of the compounds of the present disclosure on the expression of target proteins in cells; endogenous in cells; host or cells: human PBMCs (hPBMCs)
T6 sequence (P48729 whole entry): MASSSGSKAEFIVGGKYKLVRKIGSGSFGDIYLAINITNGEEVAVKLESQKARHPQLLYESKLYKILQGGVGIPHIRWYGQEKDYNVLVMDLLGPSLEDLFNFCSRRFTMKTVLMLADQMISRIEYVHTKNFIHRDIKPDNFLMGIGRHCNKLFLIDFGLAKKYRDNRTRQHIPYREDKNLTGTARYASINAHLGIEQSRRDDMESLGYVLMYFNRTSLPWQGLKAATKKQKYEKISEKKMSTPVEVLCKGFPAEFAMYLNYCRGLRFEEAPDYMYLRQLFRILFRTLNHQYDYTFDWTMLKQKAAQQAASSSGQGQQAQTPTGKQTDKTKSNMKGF
T6 sequence (Q96SW2 whole entry): as the sequence (Q96SW2 whole entry) above
T6 sequence (Q16531 whole entry partner): as the sequence (Q16531 whole entry partner) above
Method: as §1, §2, §3, §4, §5

O=C1CCN(N2Cc3cc(CN4CCN(C(c5ccccc5)c5ccncc5)CC4)ccc3C2=O)C(=O)N1 (stereo not drawn) [GT-04891, 1-(1-oxo-5-((4-(phenyl(pyridin-4-yl)methyl)piperazin-1-yl)methyl)isoindolin-2-yl)dihydropyrimidine-2,4(1H,3H)-dione]
IKZF1 substrate protein remaining % (IKZF1): A ("A" is defined as 0% ≤ substrate protein remaining % ≤ 80%)
IKZF3 substrate protein remaining % (IKZF3): B ("B" is defined as 80%< substrate protein remaining %≤ 100%)
IKZF2 substrate protein remaining % (IKZF2): A ("A" is defined as 0% ≤ substrate protein remaining % ≤ 80%)
GSPT1 substrate protein remaining % (GSPT1): A ("A" is defined as 0% ≤ substrate protein remaining % ≤ 80%)
WEE1 substrate protein remaining % (WEE1): B ("B" is defined as 80%< substrate protein remaining %≤ 100%)
CK1α substrate protein remaining % (CK1α): B ("B" is defined as 80%< substrate protein remaining %≤ 100%)

O=C1CCN(N2Cc3cc(CN4CCN(C(c5ccc(Cl)cc5)c5ccc(Cl)cc5)CC4)ccc3C2=O)C(=O)N1 [GT-04895, 1-(5-((4-(bis(4-chlorophenyl)methyl)piperazin-1-yl)methyl)-1-oxoisoindolin-2-yl)dihydropyrimidine-2,4(1H,3H)-dione]
IKZF1 substrate protein remaining % (IKZF1): A ("A" is defined as 0% ≤ substrate protein remaining % ≤ 80%)
IKZF3 substrate protein remaining % (IKZF3): B ("B" is defined as 80%< substrate protein remaining %≤ 100%)
IKZF2 substrate protein remaining % (IKZF2): A ("A" is defined as 0% ≤ substrate protein remaining % ≤ 80%)
GSPT1 substrate protein remaining % (GSPT1): A ("A" is defined as 0% ≤ substrate protein remaining % ≤ 80%)
WEE1 substrate protein remaining % (WEE1): B ("B" is defined as 80%< substrate protein remaining %≤ 100%)
CK1α substrate protein remaining % (CK1α): B ("B" is defined as 80%< substrate protein remaining %≤ 100%)

O=C1CCN(N2Cc3cc(CN4C[C@@H]5C[C@H]4CN5C(c4ccccc4)c4ccccc4)ccc3C2=O)C(=O)N1 [GT-04938, 1-(5-(((1S,4S)-5-benzhydryl-2,5-diazabicyclo[2.2.1]heptan-2-yl)methyl)-1-oxoisoindolin-2-yl)dihydropyrimidine-2,4(1H,3H)-dione]
IKZF1 substrate protein remaining % (IKZF1): B ("B" is defined as 80%< substrate protein remaining %≤ 100%)
IKZF3 substrate protein remaining % (IKZF3): B ("B" is defined as 80%< substrate protein remaining %≤ 100%)
IKZF2 substrate protein remaining % (IKZF2): A ("A" is defined as 0% ≤ substrate protein remaining % ≤ 80%)
GSPT1 substrate protein remaining % (GSPT1): A ("A" is defined as 0% ≤ substrate protein remaining % ≤ 80%)
WEE1 substrate protein remaining % (WEE1): A ("A" is defined as 0% ≤ substrate protein remaining % ≤ 80%)
CK1α substrate protein remaining % (CK1α): B ("B" is defined as 80%< substrate protein remaining %≤ 100%)

Cc1ccc(N2CCN(Cc3ccc4c(c3)CN(N3CCC(=O)NC3=O)C4=O)CC2)s1 [GT-05083, 1-(5-((4-(5-methylthiophen-2-yl)piperazin-1-yl)methyl)-1-oxoisoindolin-2-yl)dihydropyrimidine-2,4(1H,3H)-dione]
IKZF1 substrate protein remaining % (IKZF1): B ("B" is defined as 80%< substrate protein remaining %≤ 100%)
IKZF3 substrate protein remaining % (IKZF3): B ("B" is defined as 80%< substrate protein remaining %≤ 100%)
IKZF2 substrate protein remaining % (IKZF2): A ("A" is defined as 0% ≤ substrate protein remaining % ≤ 80%)
GSPT1 substrate protein remaining % (GSPT1): B ("B" is defined as 80%< substrate protein remaining %≤ 100%)
WEE1 substrate protein remaining % (WEE1): B ("B" is defined as 80%< substrate protein remaining %≤ 100%)
CK1α substrate protein remaining % (CK1α): B ("B" is defined as 80%< substrate protein remaining %≤ 100%)

Cc1ccsc1N1CCN(Cc2ccc3c(c2)CN(N2CCC(=O)NC2=O)C3=O)CC1 [GT-05084, 1-(5-((4-(3-methylthiophen-2-yl)piperazin-1-yl)methyl)-1-oxoisoindolin-2-yl)dihydropyrimidine-2,4(1H,3H)-dione]
IKZF1 substrate protein remaining % (IKZF1): B ("B" is defined as 80%< substrate protein remaining %≤ 100%)
IKZF3 substrate protein remaining % (IKZF3): B ("B" is defined as 80%< substrate protein remaining %≤ 100%)
IKZF2 substrate protein remaining % (IKZF2): A ("A" is defined as 0% ≤ substrate protein remaining % ≤ 80%)
GSPT1 substrate protein remaining % (GSPT1): B ("B" is defined as 80%< substrate protein remaining %≤ 100%)
WEE1 substrate protein remaining % (WEE1): B ("B" is defined as 80%< substrate protein remaining %≤ 100%)
CK1α substrate protein remaining % (CK1α): B ("B" is defined as 80%< substrate protein remaining %≤ 100%)

Cc1cc(N2CCN(Cc3ccc4c(c3)CN(N3CCC(=O)NC3=O)C4=O)CC2)cs1 [GT-05087, 1-(5-((4-(5-methylthiophen-3-yl)piperazin-1-yl)methyl)-1-oxoisoindolin-2-yl)dihydropyrimidine-2,4(1H,3H)-dione]
IKZF1 substrate protein remaining % (IKZF1): B ("B" is defined as 80%< substrate protein remaining %≤ 100%)
IKZF3 substrate protein remaining % (IKZF3): B ("B" is defined as 80%< substrate protein remaining %≤ 100%)
IKZF2 substrate protein remaining % (IKZF2): B ("B" is defined as 80%< substrate protein remaining %≤ 100%)
GSPT1 substrate protein remaining % (GSPT1): A ("A" is defined as 0% ≤ substrate protein remaining % ≤ 80%)
WEE1 substrate protein remaining % (WEE1): B ("B" is defined as 80%< substrate protein remaining %≤ 100%)
CK1α substrate protein remaining % (CK1α): B ("B" is defined as 80%< substrate protein remaining %≤ 100%)

Cc1cccc(N2CCN(Cc3ccc4c(c3)CN(N3CCC(=O)NC3=O)C4=O)CC2)n1 [GT-05125, 1-(5-((4-(6-methylpyridin-2-yl)piperazin-1-yl)methyl)-1-oxoisoindolin-2-yl)dihydropyrimidine-2,4(1H,3H)-dione]
IKZF1 substrate protein remaining % (IKZF1): A ("A" is defined as 0% ≤ substrate protein remaining % ≤ 80%)
IKZF3 substrate protein remaining % (IKZF3): A ("A" is defined as 0% ≤ substrate protein remaining % ≤ 80%)
IKZF2 substrate protein remaining % (IKZF2): B ("B" is defined as 80%< substrate protein remaining %≤ 100%)
GSPT1 substrate protein remaining % (GSPT1): A ("A" is defined as 0% ≤ substrate protein remaining % ≤ 80%)
WEE1 substrate protein remaining % (WEE1): A ("A" is defined as 0% ≤ substrate protein remaining % ≤ 80%)
CK1α substrate protein remaining % (CK1α): A ("A" is defined as 0% ≤ substrate protein remaining % ≤ 80%)

O=C1CCN(N2Cc3cc(CN4CCN(c5cc(Cl)ccn5)CC4)ccc3C2=O)C(=O)N1 [GT-05128, 1-(5-((4-(4-chloropyridin-2-yl)piperazin-1-yl)methyl)-1-oxoisoindolin-2-yl)dihydropyrimidine-2,4(1H,3H)-dione]
IKZF1 substrate protein remaining % (IKZF1): A ("A" is defined as 0% ≤ substrate protein remaining % ≤ 80%)
IKZF3 substrate protein remaining % (IKZF3): A ("A" is defined as 0% ≤ substrate protein remaining % ≤ 80%)
IKZF2 substrate protein remaining % (IKZF2): A ("A" is defined as 0% ≤ substrate protein remaining % ≤ 80%)
GSPT1 substrate protein remaining % (GSPT1): A ("A" is defined as 0% ≤ substrate protein remaining % ≤ 80%)
WEE1 substrate protein remaining % (WEE1): A ("A" is defined as 0% ≤ substrate protein remaining % ≤ 80%)
CK1α substrate protein remaining % (CK1α): A ("A" is defined as 0% ≤ substrate protein remaining % ≤ 80%)

O=C1CCN(N2Cc3cc(CN4CCN(c5ncccc5F)CC4)ccc3C2=O)C(=O)N1 [GT-05129, 1-(5-((4-(3-fluoropyridin-2-yl)piperazin-1-yl)methyl)-1-oxoisoindolin-2-yl)dihydropyrimidine-2,4(1H,3H)-dione]
IKZF1 substrate protein remaining % (IKZF1): A ("A" is defined as 0% ≤ substrate protein remaining % ≤ 80%)
IKZF3 substrate protein remaining % (IKZF3): A ("A" is defined as 0% ≤ substrate protein remaining % ≤ 80%)
IKZF2 substrate protein remaining % (IKZF2): A ("A" is defined as 0% ≤ substrate protein remaining % ≤ 80%)
GSPT1 substrate protein remaining % (GSPT1): A ("A" is defined as 0% ≤ substrate protein remaining % ≤ 80%)
WEE1 substrate protein remaining % (WEE1): A ("A" is defined as 0% ≤ substrate protein remaining % ≤ 80%)
CK1α substrate protein remaining % (CK1α): A ("A" is defined as 0% ≤ substrate protein remaining % ≤ 80%)

O=C1CCN(N2Cc3cc(CN4CCN(c5cccc(F)n5)CC4)ccc3C2=O)C(=O)N1 [GT-05130, 1-(5-((4-(6-fluoropyridin-2-yl)piperazin-1-yl)methyl)-1-oxoisoindolin-2-yl)dihydropyrimidine-2,4(1H,3H)-dione]
IKZF1 substrate protein remaining % (IKZF1): A ("A" is defined as 0% ≤ substrate protein remaining % ≤ 80%)
IKZF3 substrate protein remaining % (IKZF3): A ("A" is defined as 0% ≤ substrate protein remaining % ≤ 80%)
IKZF2 substrate protein remaining % (IKZF2): A ("A" is defined as 0% ≤ substrate protein remaining % ≤ 80%)
GSPT1 substrate protein remaining % (GSPT1): A ("A" is defined as 0% ≤ substrate protein remaining % ≤ 80%)
WEE1 substrate protein remaining % (WEE1): A ("A" is defined as 0% ≤ substrate protein remaining % ≤ 80%)
CK1α substrate protein remaining % (CK1α): A ("A" is defined as 0% ≤ substrate protein remaining % ≤ 80%)
